Series [1] deals with HCT116p53−/− (HCT116 with deleted p53 gene). As to the kind of experiment: Cytotoxic MTS assay, HCT116p53−/−. Type of series: cell-based, human. The method in brief: (§1)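 MTS, 72 h exposure, 37 °C/5% CO2; 4-fold serial dilutions added at t0; OD490 after 1–4 h MTS; IC50 = 50% growth inhibition; technical duplicates, ≥3 biological replicates.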
In general terms: Formazan colour is commonly taken as a measure of viable cells.

Series [2] deals with A549 (lung adenocarcinoma). As to the kind of experiment: Cytotoxic MTS assay, A549. It is filed as cell-based, human. The method in brief: as §1
Series [3] has as its system K562 (chronic myeloid leukemia). As to the kind of experiment: Cytotoxic MTS assay, K562. It is filed as cell-based, human. The method in brief: as §1
The test system of another series is CCRF-CEM lymphoblasts. Kind of series: Mitosis, pH3Ser10 antibody labeling, flow cytometry. Type of series: cell-based, human. The following applies: 24 h. On the procedure: The effect of compounds on cell cycle distribution was determined to gain insights into the mechanism of its antiproliferative activity. […] For example, as compared with control, the percentage of cells in G2/M phases was increased by treatment with 5 × IC50 μM of compounds for 24 h (Table 4). […] As shown in (Table 4), there was a marked increase in the sub-G1 from 2.91 in untreated cells. 5-Bromo-2-deoxyuridine (BrDU) is incorporated into newly synthesized DNA, and 5-bromouridine (BrU) pulse labeling is therefore commonly used as a proliferation marker. Low BrDU and BrU incorporation into the DNA or RNA, respectively, of treated cells with all compounds at 5 × IC50 reflected inhibition of DNA and RNA synthesis, indicating irreversible apoptotic changes. The percentage of […] cells incorporating 5-bromouridine is proportional to the transcriptional activity of CCRF-CEM cells.
CCRF-CEM cells were seeded at a density of 1 × 10^6 cells per one mL in 6-well plates (TTP) and were cultivated with compounds at concentrations corresponding to 1 × or 5 × IC50 value. Together with the compounds-treated cells, a vehicle-treated sample was harvested at the same time point. After 24 h, the cells were washed with cold phosphate-buffered saline (PBS) and fixed in 70% ethanol added dropwise and stored overnight at −20 °C. Afterward, cells were washed in hypotonic citrate buffer, treated with RNase (50 µg mL^−1), and stained with propidium iodide. Flow cytometry using a 488 nm single beam laser (Becton Dickinson) was used for measurement. The cell cycle was analyzed by the software ModFitLT (Verity), and apoptosis was measured in a logarithmic model expressing the percentage of the particles with propidium content lower than cells in the G0/G1 phase (<G1) of the cell cycle. Half of the sample was used for pH3Ser10 antibody (Sigma) labeling and subsequent flow cytometry analysis of the cells in mitosis.
(In general: A flow cytometer gives signals particle by particle.)

The subject of series [4] is MRC-5 (noncancerous human lung fibroblasts). Kind of series: Cytotoxic MTS assay, MRC-5. It is filed as cell-based. The method in brief: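 Compounds in DMSO are dispensed at time zero onto cells at 25,000–35,000 cells/mL. After 72 h incubation, MTS is added for 1–4 h and optical density at 490 nm is read. IC50 marks 50% cell growth inhibition.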
Series [5] concerns CCRF-CEM (childhood T cell acute lymphoblastic leukemia). As to the kind of experiment: Cytotoxic MTS assay, CCRF-CEM. Type of series: cell-based, human. The method in brief: as §1
The subject of series [6] is K562-TAX (chronic myeloid leukemia paclitaxel-resistant subline). As to the kind of experiment: Cytotoxic MTS assay, K562-TAX. It is filed as cell-based, human. The gist of the method: as §1
Series [7] relates to BJLD (human lung fibroblast doxorubicin-resistant). Kind of series: Cytotoxic MTS assay, BJLD. It is filed as cell-based. The method in brief: as §1
Setting [8] is: 5 × IC50 (second value of cell).

We go through 7 molecules from PMC9607427, “Novel 7-Chloro-(4-thioalkylquinoline) Derivatives: Synthesis and Antiproliferative Activity through Inducing Apoptosis and DNA/RNA Damage” (Pharmaceuticals, 2022).

In the case of `COc1ccc(OC)c(C(=O)OCCS(=O)(=O)c2cc[n+]([O-])c3cc(Cl)ccc23)c1` [Compound 65, 2-[(N-Oxide 7-chloroquinolin-4-yl)sulfonyl]ethyl-2,5-dimethoxybenzoate], the IC50 (in general, the concentration needed to halve the response being measured) in series [1] worked out at 8.26 µM; in series [2], 28.2 µM; in series [3], 5.85 µM; in series [4], 4.95 µM; in series [5] it was 0.55 µM; in series [6], 6.65 µM. In series [7], it took 9.68 µM to reach half-maximal inhibition (IC50). The “M (Mitosis Phospho-Histone3 (Ser10)), % of Total Cellular Populations” value (“M (Mitosis Phospho-Histone3 (Ser10)), %” for short) with CCRF-CEM lymphoblasts (1 × IC50 (first value of cell)) is 1%; in the series with CCRF-CEM lymphoblasts (setting [8]), 1.66%.
Turning to `COc1ccc(C(=O)OCCS(=O)(=O)c2cc[n+]([O-])c3cc(Cl)ccc23)cc1` [Compound 63, 2-[(N-Oxide 7-chloroquinolin-4-yl)sulfonyl]ethyl-4-methoxybenzoate], the IC50 was determined as 16.4 µM in series [1]; 28.8 µM in series [2]; 5.38 µM in series [3]; 4 µM in series [4]; 0.77 µM in series [5]; 4.71 µM in series [6]. The same molecule registered an IC50 in series [7] of 12.1 µM. The “M (Mitosis Phospho-Histone3 (Ser10)), %” value in the series with CCRF-CEM lymphoblasts (1 × IC50 (first value of cell)) stood at 1.66%; in the series on CCRF-CEM lymphoblasts (setting [8]), 1.53%.
Take `Cc1ccc([N+](=O)[O-])c(C(=O)OCCS(=O)(=O)c2cc[n+]([O-])c3cc(Cl)ccc23)c1` [Compound 70, 2-[(N-Oxide 7-chloroquinolin-4-yl)sulfonyl]ethyl-5-methyl-2-nitrobenzoate]: the IC50 came out at 8.75 µM in series [1]; 28.2 µM in series [2]; 6.1 µM in series [3]; 22.9 µM in series [4]; 1.16 µM in series [5]; 6.89 µM in series [6]. Besides, the IC50 in series [7] was more than 50 µM. Besides, the entries for the “M (Mitosis Phospho-Histone3 (Ser10)), %” value with CCRF-CEM lymphoblasts (1 × IC50 (first value of cell)) and in the series on CCRF-CEM lymphoblasts (setting [8]) were 1.57% and 1.08%, respectively.
For the molecule `COc1ccc(C(=O)OCCS(=O)(=O)c2cc[n+]([O-])c3cc(Cl)ccc23)cc1[N+](=O)[O-]` [Compound 69, 2-[(N-Oxide 7-chloroquinolin-4-yl)sulfonyl]ethyl-4-methoxy-3-nitrobenzoate], the IC50 in series [1] amounted to 11.2 µM; in series [2], 28.3 µM; in series [3] it was 6.49 µM; in series [4] it was 8.41 µM; in series [5], 1.38 µM; in series [6] it was 7.32 µM. The molecule also returned an IC50 in series [7] of 19.5 µM. Further, the “M (Mitosis Phospho-Histone3 (Ser10)), %” value was 1.61% in the series with CCRF-CEM lymphoblasts (1 × IC50 (first value of cell)) and 1.6% in the series on CCRF-CEM lymphoblasts (setting [8]).
Consider `COc1ccccc1C(=O)OCCS(=O)(=O)c1cc[n+]([O-])c2cc(Cl)ccc12` [Compound 68, 2-[(N-Oxide 7-chloroquinolin-4-yl)sulfonyl]ethyl-2-methoxybenzoate], for which the IC50 in series [1] was determined as 8.3 µM; in series [2], 27 µM; in series [3] it was 4.72 µM; in series [4] it was 4.92 µM; in series [5], 1.23 µM; in series [6], 4.63 µM. This molecule also gave an IC50 in series [7] of 10.1 µM. In addition, the “M (Mitosis Phospho-Histone3 (Ser10)), %” value is 1.73% in the series on CCRF-CEM lymphoblasts (1 × IC50 (first value of cell)) and 2.11% in the series on CCRF-CEM lymphoblasts (setting [8]).
As for `COc1cc(OC)c(C(=O)OCCS(=O)(=O)c2cc[n+]([O-])c3cc(Cl)ccc23)cc1OC` [Compound 66, 2-[(N-Oxide 7-chloroquinolin-4-yl)sulfonyl]ethyl-2,4,5-trimethoxybenzoate], the IC50 in series [1] came to 7.94 µM; in series [2], 28 µM; in series [3], 5.3 µM; in series [4], 5.07 µM; in series [5], 1.11 µM; in series [6], 6.25 µM. Besides, it took 11 µM to reach half-maximal inhibition in series [7] (IC50). The “M (Mitosis Phospho-Histone3 (Ser10)), %” value with CCRF-CEM lymphoblasts (1 × IC50 (first value of cell)) came to 1.64%; with CCRF-CEM lymphoblasts (setting [8]), 2.29%.
`O=C(OCCS(=O)(=O)c1cc[n+]([O-])c2cc(Cl)ccc12)c1ccc(C(F)(F)F)cc1` [Compound 72, 2-[(N-Oxide 7-chloroquinolin-4-yl)sulfonyl]ethyl-4-(trifluoromethyl)benzoate]: the IC50 in series [1] worked out at 16.4 µM; in series [2], 28.5 µM; in series [3], 3.02 µM; in series [4], 24.4 µM; in series [5], 2.14 µM; in series [6] it was 6.06 µM. The molecule further yielded a concentration for half-maximal inhibition (IC50) in series [7] of 27 µM. For the same molecule, the “M (Mitosis Phospho-Histone3 (Ser10)), %” value is 1.61% in the series with CCRF-CEM lymphoblasts (1 × IC50 (first value of cell)) and 5.28% with CCRF-CEM lymphoblasts (setting [8]).
